Source: ChEMBL document CHEMBL3232805, “Alkaloids from the roots of Stichoneuron caudatum and their acetylcholinesterase inhibitory activities” (J Nat Prod, 2014)

Target: Acetylcholinesterase (Homo sapiens, UniProt P22303)
Experiment: Inhibition of human AChE by spectrophotometry

Sequence of Acetylcholinesterase (P22303 whole entry): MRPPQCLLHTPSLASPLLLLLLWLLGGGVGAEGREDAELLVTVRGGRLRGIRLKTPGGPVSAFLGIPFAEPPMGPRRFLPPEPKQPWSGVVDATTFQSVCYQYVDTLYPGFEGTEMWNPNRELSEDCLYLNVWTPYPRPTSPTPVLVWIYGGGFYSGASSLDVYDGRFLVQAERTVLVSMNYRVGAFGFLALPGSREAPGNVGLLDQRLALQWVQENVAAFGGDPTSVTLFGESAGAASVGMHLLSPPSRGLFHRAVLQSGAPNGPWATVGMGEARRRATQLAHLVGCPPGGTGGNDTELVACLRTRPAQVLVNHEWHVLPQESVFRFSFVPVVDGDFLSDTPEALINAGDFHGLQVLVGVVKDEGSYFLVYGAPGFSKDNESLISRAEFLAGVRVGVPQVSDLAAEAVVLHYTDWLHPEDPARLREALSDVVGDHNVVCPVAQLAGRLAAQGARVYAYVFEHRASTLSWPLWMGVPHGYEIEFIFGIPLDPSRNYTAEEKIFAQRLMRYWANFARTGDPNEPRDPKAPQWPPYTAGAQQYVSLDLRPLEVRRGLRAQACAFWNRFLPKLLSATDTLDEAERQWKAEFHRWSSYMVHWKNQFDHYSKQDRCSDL

SMILES | IC50
CC[C@H]1[C@H](C[C@H](C)C(=O)OC)O[C@]23CC[C@@H]([C@@H]4C[C@H](C)C(=O)O4)N2CCCC[C@H]13 | 71.5 µM
CC[C@H]1[C@H](C[C@H](C)C(=O)OC)O[C@]23CC[C@@H]([C@@H]4C[C@H](C)C(=O)O4)N2CCCC[C@]13O | > 100 µM
CC[C@H]1[C@H]2OC(=O)[C@](C)(O)[C@H]2[C@]23CC[C@@H]([C@@H]4C[C@@H](C)C(=O)O4)N2CCCC[C@@H]13 | 9.1 µM
CC[C@@H]1[C@H]2OC(=O)[C@](C)(O)[C@H]2[C@]23CC[C@@H]([C@@H]4C[C@@H](C)C(=O)O4)N2CCCC[C@@H]13 | > 100 µM
CC[C@@H]1[C@H]2OC(=O)[C@@](C)(O)[C@H]2[C@]23CC[C@@H]([C@@H]4C[C@H](C)C(=O)O4)N2CCCC[C@H]13 | 68.8 µM
CC[C@H]1[C@@H]2OC(=O)[C@@](C)(O)[C@@H]2[C@@]23CC[C@@H]([C@@H]4C[C@H](C)C(=O)O4)N2CCCC[C@H]13 | 17.1 µM
CC[C@H]1[C@H]2OC(=O)[C@@](C)(O)[C@H]2[C@]23CC[C@@H]([C@@H]4C[C@H](C)C(=O)O4)N2CCCC[C@H]13 | > 100 µM
